From patent publication US6977260B2, “Piperidinyl prostaglandin E analogs” (Allergan, Inc., priority 2004, dated 2005)

Legend:
Format in all cases: cell-based
Settings in all cases: HEK-293-EBNA stable transfectants
[1] = molecular target: T1, hEP4 (Homo sapiens, UniProt P35408); test: Functional data, human recombinant EP4 receptor stable transfectants
T1 construct: expressed in transfected cells; host or cells: HEK-293-EBNA
Description: (§1) Human Recombinant EP1, EP2, EP3, EP4, FP, TP, IP and DP Receptors: Stable Transfectants.
(§2) Plasmids encoding the human EP1, EP2, EP3, EP4, FP, TP, IP and DP receptors were prepared by cloning the respective coding sequences into the eukaryotic expression vector pCEP4 (Invitrogen). The pCEP4 vector contains an Epstein Barr virus (EBV) origin of replication, which permits episomal replication in primate cell lines expressing EBV nuclear antigen (EBNA-1). It also contains a hygromycin resistance gene that is used for eukaryotic selection. The cells employed for stable transfection were human embryonic kidney cells (HEK-293) that were transfected with and express the EBNA-1 protein. These HEK-293-EBNA cells (Invitrogen) were grown in medium containing Geneticin (G418) to maintain expression of the EBNA-1 protein. HEK-293 cells were grown in DMEM with 10% fetal bovine serum (FBS), 250 μg ml^−1 G418 (Life Technologies) and 200 μg ml^−1 gentamicin or penicillin/streptomycin.
(§3) For transfection, the cells were grown to 50-60% confluency on 10 cm plates. The plasmid pCEP4 incorporating cDNA inserts for the respective human prostanoid receptor (20 μg) was added to 500 μl of 250 mM CaCl2. HEPES buffered saline×2 (2×HBS, 280 mM NaCl, 20 mM HEPES acid, 1.5 mM Na2 HPO4, pH 7.05-7.12) was then added dropwise to a total of 500 μl, with continuous-vortexing at room temperature. After 30 min, 9 ml DMEM were added to the mixture. The DNA/DMEM/calcium phosphate mixture was then added to the cells, which had been previously rinsed with 10 ml PBS. The cells were then incubated for 5 hr at 37° C. in humidified 95% air/5% CO2. The calcium phosphate solution was then removed and the cells were treated with 10% glycerol in DMEM for 2 min. The glycerol solution was then replaced by DMEM with 10% FBS. The cells were incubated overnight and the medium was replaced by DMEM/10% FBS containing 250 μg ml^−1 G418 and penicillin/streptomycin. The following day hygromycin B was added to a final concentration of 200 μg ml^−1.
(§4) Ten days after transfection, hygromycin B resistant clones were individually selected and transferred to a separate well on a 24 well plate. At confluence each clone was transferred to one well of a 6 well plate, and then expanded in a 10 cm dish. Cells were maintained under continuous hygromycin selection until use.

[2] = molecular target: T2, hEP3A (Homo sapiens, UniProt P43115); test: Functional data, human recombinant EP3 receptor stable transfectants
T2 construct: expressed in transfected cells; host or cells: HEK-293-EBNA
T2 sequence (P43115 1-390): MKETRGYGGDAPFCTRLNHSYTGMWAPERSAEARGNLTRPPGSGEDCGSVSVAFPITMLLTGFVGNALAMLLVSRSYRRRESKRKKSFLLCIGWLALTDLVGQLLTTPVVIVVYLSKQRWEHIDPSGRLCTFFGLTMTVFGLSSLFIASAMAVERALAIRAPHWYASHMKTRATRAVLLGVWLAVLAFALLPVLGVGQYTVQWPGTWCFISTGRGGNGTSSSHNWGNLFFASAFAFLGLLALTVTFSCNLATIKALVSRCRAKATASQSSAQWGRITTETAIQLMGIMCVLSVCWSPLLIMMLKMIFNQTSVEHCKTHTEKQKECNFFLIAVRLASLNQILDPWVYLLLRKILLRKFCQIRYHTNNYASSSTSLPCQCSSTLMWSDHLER
Description: as §1, §2
(§5) For transfection, the cells were grown to 50-60% confluency on 10 cm plates. The plasmid pCEP4 incorporating cDNA inserts for the respective human prostanoid receptor (20 μg) was added to 500 μl of 250 mM CaCl2. HEPES buffered saline×2 (2×HBS, 280 mM NaCl, 20 mM HEPES acid, 1.5 mM Na2 HPO4, pH 7.05-7.12) was then added dropwise to a total of 500 μl, with continuous-vortexing at room temperature. […]

[3] = molecular target: T3, hTP (Homo sapiens, UniProt P21731); test: Functional data, human recombinant TP receptor stable transfectants
T3 construct: expressed in transfected cells; host or cells: HEK-293-EBNA
T3 sequence (P21731 1-343): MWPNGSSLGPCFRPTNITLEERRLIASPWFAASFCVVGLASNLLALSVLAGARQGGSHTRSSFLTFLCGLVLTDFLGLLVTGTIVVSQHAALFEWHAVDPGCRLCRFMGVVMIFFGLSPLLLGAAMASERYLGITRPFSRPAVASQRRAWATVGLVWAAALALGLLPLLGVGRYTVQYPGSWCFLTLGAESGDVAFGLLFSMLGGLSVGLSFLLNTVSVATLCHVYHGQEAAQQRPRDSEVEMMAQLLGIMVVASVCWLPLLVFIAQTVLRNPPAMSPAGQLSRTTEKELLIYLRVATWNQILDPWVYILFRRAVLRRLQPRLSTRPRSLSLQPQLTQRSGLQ
Description: as §1, §2, §3, §4

[4] = molecular target: T4, hEP1 (Homo sapiens, UniProt P34995); test: Functional data, human recombinant EP1 receptor stable transfectants
T4 construct: expressed in transfected cells; host or cells: HEK-293-EBNA
T4 sequence (P34995 1-402): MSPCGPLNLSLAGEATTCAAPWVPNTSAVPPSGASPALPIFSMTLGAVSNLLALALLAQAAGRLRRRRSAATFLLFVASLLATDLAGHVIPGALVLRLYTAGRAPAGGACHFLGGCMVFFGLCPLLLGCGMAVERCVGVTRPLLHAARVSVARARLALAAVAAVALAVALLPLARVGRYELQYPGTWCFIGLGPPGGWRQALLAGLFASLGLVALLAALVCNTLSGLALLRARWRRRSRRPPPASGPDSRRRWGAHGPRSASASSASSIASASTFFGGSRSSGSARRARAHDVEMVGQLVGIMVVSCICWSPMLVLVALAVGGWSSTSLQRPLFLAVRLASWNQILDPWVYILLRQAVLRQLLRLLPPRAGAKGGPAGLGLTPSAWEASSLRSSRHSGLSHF
Description: as §1, §2, §5

[5] = molecular target: T5, hEP2 (Homo sapiens, UniProt P43116); test: Functional data, human recombinant EP2 receptor stable transfectants
T5 construct: expressed in transfected cells; host or cells: HEK-293-EBNA
T5 sequence (P43116 whole entry): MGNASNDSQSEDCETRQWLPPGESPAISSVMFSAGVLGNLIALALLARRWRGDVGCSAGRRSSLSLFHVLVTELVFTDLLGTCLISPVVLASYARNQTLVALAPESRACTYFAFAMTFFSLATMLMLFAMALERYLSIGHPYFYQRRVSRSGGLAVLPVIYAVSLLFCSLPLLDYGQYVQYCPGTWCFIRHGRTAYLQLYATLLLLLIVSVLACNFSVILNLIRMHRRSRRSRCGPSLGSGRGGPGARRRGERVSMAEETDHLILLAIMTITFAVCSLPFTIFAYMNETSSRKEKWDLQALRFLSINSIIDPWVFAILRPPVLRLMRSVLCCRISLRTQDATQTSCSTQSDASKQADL
Description: as §1, §2, §5

T1 sequence (P35408 whole entry): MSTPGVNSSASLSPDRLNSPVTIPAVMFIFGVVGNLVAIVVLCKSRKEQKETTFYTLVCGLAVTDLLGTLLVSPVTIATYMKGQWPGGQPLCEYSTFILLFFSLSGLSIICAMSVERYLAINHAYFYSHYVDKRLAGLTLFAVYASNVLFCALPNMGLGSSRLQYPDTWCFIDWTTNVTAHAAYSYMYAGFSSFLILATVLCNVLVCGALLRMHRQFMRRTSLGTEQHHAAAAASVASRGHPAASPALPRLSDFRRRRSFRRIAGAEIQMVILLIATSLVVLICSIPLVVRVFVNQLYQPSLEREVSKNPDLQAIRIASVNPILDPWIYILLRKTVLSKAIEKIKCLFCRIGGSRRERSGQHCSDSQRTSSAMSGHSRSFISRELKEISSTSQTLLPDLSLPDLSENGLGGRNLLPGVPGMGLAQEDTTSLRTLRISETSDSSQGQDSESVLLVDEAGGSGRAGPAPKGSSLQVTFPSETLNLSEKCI

Row | SMILES | EC50 [1] [nM] | EC50 [3] [nM] | also measured
1 | COC(=O)COCCCCN1C(=O)CCC[C@@H]1/C=C/C(O)Cc1ccccc1 (stereo partly drawn) [Example 3, {4-[(R)-2-((E)-3-Hydroxy-4-phenyl-but-1-enyl)-6-oxo-piperidin-1-yl]-butoxy}-acetic acid methyl ester] | 1100 | – | –
2 | COC(=O)COCCCCN1C(=O)CCC[C@@H]1CCC(O)Cc1ccccc1 (stereo partly drawn) [Example 5, {4-[(R)-2-(3-Hydroxy-4-phenyl-butyl)-6-oxo-piperidin-1-yl]-butoxy}-acetic acid methyl ester] | > 10000 | – | EC50 [2]: > 10000 nM
3 | O=C(O)COCCCCN1C(=O)CCC[C@@H]1/C=C/C(=O)Cc1ccccc1 [Example 2, {4-[(R)-2-Oxo-6-((E)-3-oxo-4-phenyl-but-1-enyl)-piperidin-1-yl]-butoxy}-acetic acid] | 300 | 2260 | EC50 [2]: > 10000 nM
4 | O=C(O)COC/C=C\CN1C(=O)CCC[C@@H]1CCC(=O)Cc1ccccc1 [Example 14, {(Z)-4[(R)-2-Oxo-6-(3-oxo-4-phenyl-butyl)-piperidin-1-yl]-but-2-enyloxy}-acetic acid] | > 10000 | > 10000 | –
5 | O=C(O)COCCCCN1C(=O)CCC[C@@H]1CCC(O)Cc1ccccc1 (stereo partly drawn) [Example 6, {4-[(R)-2-(3-Hydroxy-4-phenyl-butyl)-6-oxo-piperidin-1-yl]-butoxy}-acetic acid] | > 10000 | – | –
6 | COC(=O)COCCCCN1C(=O)CCC[C@@H]1/C=C/C(=O)Cc1ccccc1 [Example 1, {4-[(R)-2-Oxo-6-((E)-3-oxophenyl-but-1-enyl)-piperidin-1-yl]-butoxy}-Acetic acid methyl ester] | – | > 10000 | –
7 | O=C(O)COCCCCN1C(=O)CCC[C@@H]1/C=C/C(O)Cc1ccccc1 (stereo partly drawn) [Example 4, {4-[(R)-2-((E)-3-Hydroxy-4-phenyl-but-1-enyl)-6-oxo-piperidin-1-yl]-butoxy}-acetic acid] | 145 | – | –
8 | O=C(O)COCCCCN1C(=O)CCC[C@@H]1/C=C/C(O)Cc1cccc(Cl)c1 (stereo partly drawn) [Example 17, (4-{(R)-2-[(E)4(3-Chlorophenyl)-3-hydroxy-but-1-enyl]-6-oxo-piperidin-1-yl}-butoxy)-acetic acid] | – | – | EC50 [4]: > 10000 nM; EC50 [5]: > 10000 nM
9 | O=C(O)COC/C=C\CN1C(=O)CCC[C@@H]1/C=C/C(O)Cc1ccccc1 (stereo partly drawn) [Example 12, {(Z)-4-[(R)-2-((E)-3-Hydroxy-4-phenyl-but-1-enyl)-6-oxo-piperidin-1-yl]-but-2-enyloxy}-acetic acid] | > 10000 | – | –
10 | O=C(O)COC/C=C\CN1C(=O)CCC[C@@H]1CCC(O)Cc1ccccc1 (stereo partly drawn) [Example 16, {(Z)-4-[(R)-2-(3-Hydroxy-4-phenyl-butyl)-6-oxo-piperidin-1-yl]-but-2-enyloxy}-acetic acid] | > 10000 | – | –
11 | O=C(O)COC/C=C\CN1C(=O)CCC[C@@H]1/C=C/C(=O)Cc1ccccc1 [Example 8, {(Z)-4-[(R)-2-Oxo-6-((E)-3-oxo-4-phenyl-but-1-enyl)-piperidin-1-yl]-but-2-enyloxy}-acetic acid] | 2560 | > 10000 | –
12 | NC(=O)COCCCCN1C(=O)CCC[C@@H]1/C=C/C(O)Cc1cccc(Cl)c1 (stereo partly drawn) [Example 18, 2-(4-{(R)-2-[(E)-4-(3-Chlorophenyl)-3-hydroxy-but-1 enyl]-6-oxo-piperidin-1-yl}-butoxy)-acetamide] | – | > 10000 | –
13 | O=C(O)COCCCCN1C(=O)CCC[C@@H]1CCC(=O)Cc1ccccc1 [Example 10, {4-[(R)-2-Oxo-6-(3-oxo-4-phenyl-butyl)-piperidin-1-yl]-butoxy}-acetic acid] | 1970 | > 10000 | –
14 | COC(=O)COCCCCN1C(=O)CCC[C@@H]1CCC(=O)Cc1ccccc1 [Example 9, {4-[(R)-2-Oxo-6-(3-oxo-4-phenyl-butyl)-piperidin-1-yl]-butoxy}-acetic acid methyl ester] | 7540 | – | –
